Results from US8449898B2 (priority 2007, dated 2013).
Read-outs that look alike come from different tables or passages of the source.

Key:
[1] = tested on: Phytophthora infestans (the causal agent of tomato late blight); assay: whole plant or invertebrate; type: in vivo; conditions: for TLB Obsd (disease control rating): Table B
[2] = tested on: Pseudoperonospora cubensis (the causal agent of cucumber downy mildew); assay: Test B: cucumber downy mildew, preventive spray on cucumber seedlings; type: in vivo
[3] = component (b) alone 2 ppm (Compound 1 0 ppm)
[4] = component (b) alone 10 ppm (Compound 1 0 ppm)
[5] = component (b) alone 40 ppm (Compound 1 0 ppm)
[6] = Phytophthora infestans, read-out: TLB Obsd (observed effect, tomato late blight), component (b) alone, 10 ppm
[7] = Phytophthora infestans, read-out: TLB Obsd (observed effect, tomato late blight), component (b) alone, 40 ppm
[8] = Pseudoperonospora cubensis, component (b) alone 10 ppm (Compound 1 0 ppm), read-out: CDM Obsd
[9] = Pseudoperonospora cubensis, component (b) alone 40 ppm (Compound 1 0 ppm), read-out: CDM Obsd
[10] = Pseudoperonospora cubensis, component (b) alone, 10 ppm, read-out: CDM Obsd (observed effect, cucumber downy mildew)
[11] = Pseudoperonospora cubensis, component (b) alone, 40 ppm, read-out: CDM Obsd (observed effect, cucumber downy mildew)
[12] = Table D, component (b) alone at 2 ppm
[13] = Table D, component (b) alone at 10 ppm
[14] = Table D, component (b) alone at 40 ppm
[15] = Table D, component (b) alone at 200 ppm
[16] = Table D, component (b) alone at 500 ppm

O=C(Nc1ccccc1-c1ccc(Cl)cc1)c1cccnc1Cl [boscalid]
pest or weed control at 0.4 ppm ([1]; Phytophthora infestans, read-out: TLB Obsd (disease control rating), Table A, component (b) alone 0.4 ppm): 9%
pest or weed control at 2 ppm ([1]; Phytophthora infestans, read-out: TLB Obsd (disease control rating), Table A, component (b) alone 2 ppm): 17%
pest or weed control at 10 ppm ([1]; Phytophthora infestans, read-out: TLB Obsd (disease control rating), Table A, component (b) alone 10 ppm): 17%
pest or weed control at 40 ppm ([1]; Phytophthora infestans, read-out: TLB Obsd (disease control rating), Table A, component (b) alone 40 ppm): 17%
pest or weed control at 200 ppm ([1]; Phytophthora infestans, read-out: TLB Obsd (disease control rating), Table A, component (b) alone 200 ppm): 9%
pest or weed control at 0.04 ppm ([1]; Phytophthora infestans, read-out: TLB Obsd, component (b) alone, 0.04 ppm): 25%
pest or weed control at 2 ppm ([1]; Phytophthora infestans, read-out: TLB Obsd, component (b) alone, 2 ppm): 0%
pest or weed control at 10 ppm ([1]; Phytophthora infestans, read-out: TLB Obsd, component (b) alone, 10 ppm): 0%
pest or weed control at 40 ppm ([1]; Phytophthora infestans, read-out: TLB Obsd, component (b) alone, 40 ppm): 17%
pest or weed control at 200 ppm ([1]; Phytophthora infestans, read-out: TLB Obsd, component (b) alone, 200 ppm): 32%
pest or weed control at 0.4 ppm ([2]; Pseudoperonospora cubensis, Table A, component (b) alone 0.4 ppm, read-out: CDM Obsd (disease control rating)): 47%
pest or weed control at 2 ppm ([2]; Pseudoperonospora cubensis, Table A, component (b) alone 2 ppm, read-out: CDM Obsd (disease control rating)): 47%
pest or weed control at 10 ppm ([2]; Pseudoperonospora cubensis, Table A, component (b) alone 10 ppm, read-out: CDM Obsd (disease control rating)): 47%
pest or weed control at 40 ppm ([2]; Pseudoperonospora cubensis, Table A, component (b) alone 40 ppm, read-out: CDM Obsd (disease control rating)): 47%
pest or weed control at 200 ppm ([2]; Pseudoperonospora cubensis, Table A, component (b) alone 200 ppm, read-out: CDM Obsd (disease control rating)): 47%
pest or weed control at 0.4 ppm ([2]; Pseudoperonospora cubensis, Table G, component (b) alone at 0.4 ppm, read-out: CDM Obsd): 47%
pest or weed control at 2 ppm ([2]; Pseudoperonospora cubensis, Table G, component (b) alone at 2 ppm, read-out: CDM Obsd): 47%
pest or weed control at 10 ppm ([2]; Pseudoperonospora cubensis, Table G, component (b) alone at 10 ppm, read-out: CDM Obsd): 26%
pest or weed control at 40 ppm ([2]; Pseudoperonospora cubensis, Table G, component (b) alone at 40 ppm, read-out: CDM Obsd): 26%
pest or weed control at 200 ppm ([2]; Pseudoperonospora cubensis, Table G, component (b) alone at 200 ppm, read-out: CDM Obsd): 26%
pest or weed control at 0.04 ppm ([2]; Pseudoperonospora cubensis, component (b) alone, 0.04 ppm, read-out: CDM Obsd): 68%
pest or weed control at 2 ppm ([2]; Pseudoperonospora cubensis, component (b) alone, 2 ppm, read-out: CDM Obsd): 0%
pest or weed control at 10 ppm ([2]; Pseudoperonospora cubensis, component (b) alone, 10 ppm, read-out: CDM Obsd): 0%
pest or weed control at 40 ppm ([2]; Pseudoperonospora cubensis, component (b) alone, 40 ppm, read-out: CDM Obsd): 0%
pest or weed control at 200 ppm ([2]; Pseudoperonospora cubensis, component (b) alone, 200 ppm, read-out: CDM Obsd): 0%

CO/C=C(/C(=O)OC)c1ccccc1Oc1cc(Oc2ccccc2C#N)ncn1 [azoxystrobin]
TLB Obsd (disease control rating) ([1]; component (b) alone 0.08 ppm): 0%
TLB Obsd (disease control rating) ([1]; component (b) alone 0.4 ppm): 16%
TLB Obsd (disease control rating) ([1]; component (b) alone 2 ppm): 26%
TLB Obsd (disease control rating) ([1]; component (b) alone 10 ppm): 58%
TLB Obsd (disease control rating) ([1]; component (b) alone 40 ppm): 99%
TLB Obsd (observed effect, tomato late blight) ([1]; component (b) alone, 0.4 ppm): 29
TLB Obsd (observed effect, tomato late blight) ([1]; component (b) alone, 2 ppm): 56
TLB Obsd (observed effect, tomato late blight) ([1]; component (b) alone, 10 ppm): 90
TLB Obsd (observed effect, tomato late blight) ([1]; component (b) alone, 40 ppm): 100
CDM Obsd (disease control rating) ([2]; Table B, component (b) alone 0.08 ppm): 64%
CDM Obsd (disease control rating) ([2]; Table B, component (b) alone 0.4 ppm): 80%
CDM Obsd (disease control rating) ([2]; Table B, component (b) alone 2 ppm): 100%
CDM Obsd (disease control rating) ([2]; Table B, component (b) alone 10 ppm): 100%
CDM Obsd (disease control rating) ([2]; Table B, component (b) alone 40 ppm): 100%
CDM Obsd ([2]; component (b) alone 0.08 ppm (Compound 1 0 ppm)): 26%
CDM Obsd ([2]; component (b) alone 0.4 ppm (Compound 1 0 ppm)): 40%
CDM Obsd [2, 3]: 100%
CDM Obsd [2, 4]: 100%
CDM Obsd [2, 5]: 100%
CDM Obsd (observed effect, cucumber downy mildew) ([2]; component (b) alone, 0.4 ppm): 0
CDM Obsd (observed effect, cucumber downy mildew) ([2]; component (b) alone, 2 ppm): 70
CDM Obsd (observed effect, cucumber downy mildew) ([2]; component (b) alone, 10 ppm): 100
CDM Obsd (observed effect, cucumber downy mildew) ([2]; component (b) alone, 40 ppm): 100

COc1ccc(C(=CC(=O)N2CCOCC2)c2ccc(Cl)cc2)cc1OC [dimethomorph]
pest or weed control at 0.08 ppm ([1]; Phytophthora infestans, read-out: TLB Obsd (disease control rating), Table B, component (b) alone 0.08 ppm): 9%
pest or weed control at 0.4 ppm ([1]; Phytophthora infestans, read-out: TLB Obsd (disease control rating), Table B, component (b) alone 0.4 ppm): 9%
pest or weed control at 2 ppm ([1]; Phytophthora infestans, read-out: TLB Obsd (disease control rating), Table B, component (b) alone 2 ppm): 47%
pest or weed control at 10 ppm ([1]; Phytophthora infestans, read-out: TLB Obsd (disease control rating), Table B, component (b) alone 10 ppm): 86%
pest or weed control at 40 ppm ([1]; Phytophthora infestans, read-out: TLB Obsd (disease control rating), Table B, component (b) alone 40 ppm): 99%
pest or weed control at 0.08 ppm ([1]; Phytophthora infestans, read-out: TLB Obsd (observed effect, tomato late blight), component (b) alone, 0.08 ppm): 31%
pest or weed control at 0.4 ppm ([1]; Phytophthora infestans, read-out: TLB Obsd (observed effect, tomato late blight), component (b) alone, 0.4 ppm): 62%
pest or weed control at 2 ppm ([1]; Phytophthora infestans, read-out: TLB Obsd (observed effect, tomato late blight), component (b) alone, 2 ppm): 95%
pest or weed control at 10 ppm [1, 6]: 88%
pest or weed control at 40 ppm [1, 7]: 100%
pest or weed control at 0.08 ppm ([2]; Pseudoperonospora cubensis, Table B, component (b) alone 0.08 ppm, read-out: CDM Obsd (disease control rating)): 47%
pest or weed control at 0.4 ppm ([2]; Pseudoperonospora cubensis, Table B, component (b) alone 0.4 ppm, read-out: CDM Obsd (disease control rating)): 57%
pest or weed control at 2 ppm ([2]; Pseudoperonospora cubensis, Table B, component (b) alone 2 ppm, read-out: CDM Obsd (disease control rating)): 70%
pest or weed control at 10 ppm ([2]; Pseudoperonospora cubensis, Table B, component (b) alone 10 ppm, read-out: CDM Obsd (disease control rating)): 100%
pest or weed control at 40 ppm ([2]; Pseudoperonospora cubensis, Table B, component (b) alone 40 ppm, read-out: CDM Obsd (disease control rating)): 100%
pest or weed control at 0.08 µg/mL ([2]; Pseudoperonospora cubensis, component (b) alone 0.08 ppm (Compound 1 0 ppm), read-out: CDM Obsd): 26%
pest or weed control at 0.4 µg/mL ([2]; Pseudoperonospora cubensis, component (b) alone 0.4 ppm (Compound 1 0 ppm), read-out: CDM Obsd): 26%
pest or weed control at 2 µg/mL ([2]; Pseudoperonospora cubensis, component (b) alone 2 ppm (Compound 1 0 ppm), read-out: CDM Obsd): 83%
pest or weed control at 10 µg/mL [2, 8]: 100%
pest or weed control at 40 µg/mL [2, 9]: 100%
pest or weed control at 0.08 ppm ([2]; Pseudoperonospora cubensis, component (b) alone, 0.08 ppm, read-out: CDM Obsd (observed effect, cucumber downy mildew)): 52%
pest or weed control at 0.4 ppm ([2]; Pseudoperonospora cubensis, component (b) alone, 0.4 ppm, read-out: CDM Obsd (observed effect, cucumber downy mildew)): 54%
pest or weed control at 2 ppm ([2]; Pseudoperonospora cubensis, component (b) alone, 2 ppm, read-out: CDM Obsd (observed effect, cucumber downy mildew)): 88%
pest or weed control at 10 ppm [2, 10]: 100%
pest or weed control at 40 ppm [2, 11]: 100%

CCCOC(=O)NCCCN(C)C [propamocarb]
pest or weed control at 10 ppm [1, 6]: 0%
pest or weed control at 40 ppm [1, 7]: 0%
pest or weed control at 200 ppm ([1]; Phytophthora infestans, read-out: TLB Obsd (observed effect, tomato late blight), component (b) alone, 200 ppm): 0%
pest or weed control at 1000 ppm ([1]; Phytophthora infestans, read-out: TLB Obsd (observed effect, tomato late blight), component (b) alone, 1000 ppm): 38%
pest or weed control at 5000 ppm ([1]; Phytophthora infestans, read-out: TLB Obsd (observed effect, tomato late blight), component (b) alone, 5000 ppm): 92%
pest or weed control at 10 ppm ([1]; Phytophthora infestans, read-out: TLB Obsd, Table D, component (b) alone at 10 ppm): 6%
pest or weed control at 40 ppm ([1]; Phytophthora infestans, read-out: TLB Obsd, Table D, component (b) alone at 40 ppm): 6%
pest or weed control at 200 ppm ([1]; Phytophthora infestans, read-out: TLB Obsd, Table D, component (b) alone at 200 ppm): 19%
pest or weed control at 1000 ppm ([1]; Phytophthora infestans, read-out: TLB Obsd, Table D, component (b) alone at 1000 ppm): 57%
pest or weed control at 5000 ppm ([1]; Phytophthora infestans, read-out: TLB Obsd, Table D, component (b) alone at 5000 ppm): 77%
pest or weed control at 10 ppm ([2]; Pseudoperonospora cubensis, Table D, component (b) alone at 10 ppm, read-out: CDM Obsd): 47%
pest or weed control at 40 ppm ([2]; Pseudoperonospora cubensis, Table D, component (b) alone at 40 ppm, read-out: CDM Obsd): 47%
pest or weed control at 200 ppm ([2]; Pseudoperonospora cubensis, Table D, component (b) alone at 200 ppm, read-out: CDM Obsd): 58%
pest or weed control at 1000 ppm ([2]; Pseudoperonospora cubensis, Table D, component (b) alone at 1000 ppm, read-out: CDM Obsd): 76%
pest or weed control at 5000 ppm ([2]; Pseudoperonospora cubensis, Table D, component (b) alone at 5000 ppm, read-out: CDM Obsd): 98%
pest or weed control at 10 µg/mL [2, 8]: 47%
pest or weed control at 40 µg/mL [2, 9]: 47%
pest or weed control at 200 µg/mL ([2]; Pseudoperonospora cubensis, component (b) alone 200 ppm (Compound 1 0 ppm), read-out: CDM Obsd): 94%
pest or weed control at 1000 µg/mL ([2]; Pseudoperonospora cubensis, component (b) alone 1000 ppm (Compound 1 0 ppm), read-out: CDM Obsd): 100%
pest or weed control at 5000 µg/mL ([2]; Pseudoperonospora cubensis, component (b) alone 5000 ppm (Compound 1 0 ppm), read-out: CDM Obsd): 100%
pest or weed control at 10 ppm [2, 10]: 46%
pest or weed control at 40 ppm [2, 11]: 31%
pest or weed control at 200 ppm ([2]; Pseudoperonospora cubensis, component (b) alone, 200 ppm, read-out: CDM Obsd (observed effect, cucumber downy mildew)): 86%
pest or weed control at 1000 ppm ([2]; Pseudoperonospora cubensis, component (b) alone, 1000 ppm, read-out: CDM Obsd (observed effect, cucumber downy mildew)): 99%
pest or weed control at 5000 ppm ([2]; Pseudoperonospora cubensis, component (b) alone, 5000 ppm, read-out: CDM Obsd (observed effect, cucumber downy mildew)): 100%

CC1CCN(c2c(-c3c(F)cc(F)cc3F)c(Cl)nc3ncnn23)CC1 [BAS600, 5-chloro-6-(2,4,6-trifluorophenyl)-7-(4-methylpiperidin-1-yl)[1,2,4]triazolo[1,5-α]pyrimidine]
TLB Obsd [1, 12]: 26%
TLB Obsd [1, 13]: 6%
TLB Obsd [1, 14]: 56%
TLB Obsd [1, 15]: 20%
TLB Obsd [1, 16]: 12%
TLB Obsd ([1]; component (b) alone, 2 ppm): 7%
TLB Obsd ([1]; component (b) alone, 10 ppm): 0%
TLB Obsd ([1]; component (b) alone, 40 ppm): 15%
TLB Obsd ([1]; component (b) alone, 200 ppm): 30%
TLB Obsd ([1]; component (b) alone, 500 ppm): 15%
CDM Obsd [2, 12]: 47%
CDM Obsd [2, 13]: 99%
CDM Obsd [2, 14]: 100%
CDM Obsd [2, 15]: 100%
CDM Obsd [2, 16]: 100%
CDM Obsd [2, 3]: 0%
CDM Obsd [2, 4]: 72%
CDM Obsd [2, 5]: 100%
CDM Obsd ([2]; component (b) alone 200 ppm (Compound 1 0 ppm)): 100%
CDM Obsd ([2]; component (b) alone, 2 ppm): 0%
CDM Obsd ([2]; component (b) alone, 10 ppm): 99%
CDM Obsd ([2]; component (b) alone, 40 ppm): 100%
CDM Obsd ([2]; component (b) alone, 200 ppm): 100%
CDM Obsd ([2]; component (b) alone, 500 ppm): 100%
